Reference: the NIST ThermoML archive (doi:10.1021/je800520w)
Numbers after ± are expanded uncertainties.

How the values were obtained:
[1] = refractive index (Na D-line) (dimensionless); settings: 293.15 K; 101.33 kPa; Liquid; Standard Abbe refractometry
[2] = 293.15 K; 101.33 kPa; Liquid; Pycnometric method

refractive index [1] | mass density [2] | Structure (SMILES)
1.3997 ± 0.0005 | 810.3 ± 0.5 kg/m3 | CCCCO [butan-1-ol]
1.3955 ± 0.0005 | 802.6 ± 0.5 kg/m3 | CCC(C)O (centres undefined) [butan-2-ol]
1.4175 ± 0.0005 | 813.8 ± 0.5 kg/m3 | CCCCCCO [hexan-1-ol]
1.3291 ± 0.0005 | 791.7 ± 0.5 kg/m3 | CO [methanol]
1.4092 ± 0.0005 | 812.9 ± 0.5 kg/m3 | CCCCCO [pentan-1-ol]
1.3853 ± 0.0005 | 803.8 ± 0.5 kg/m3 | CCCO [propan-1-ol]
1.378 ± 0.0005 | 784.9 ± 0.5 kg/m3 | CC(C)O [propan-2-ol]
